Read-outs that look alike come from different tables or passages of the source.
Columns and labels:
[1] = test system: IFNγ-induced STAT1 phosphorylation (pSTAT1) in B16F10 cells; experiment: B16F10 Phospho-STAT1 HTRF proximal pharmacodynamic (PD) assay; type: cell-based, murine; conditions: for EC50: B16-F10, B16F10 cells; for Dihydrobenzofuran or Indoline x-fold>potency cellular: x-fold versus corresponding chromane comparator, B16F10 pSTAT1
Method: Example III-3: B16F10 (Murine Melanoma Cells) Phospho-STAT1 HTRF Proximal Pharmacodynamic (PD) Assay
B16F10 cells were grown and maintained in high glucose DMEM (Gibco, Catalog^#11965-092, Dun Laoghaire Co Dublin) supplemented with 10% fetal bovine serum (Gibco, Catalog^#10082-139, Dun Laoghaire Co Dublin). The cells were pelleted and resuspended in high glucose DMEM without phenol red (Gibco, Catalog^#11054-020, Dun Laoghaire Co Dublin), supplemented with 10% fetal bovine serum and plated in a 384 well Corning plate (product^#3765, Corning, NY) at 11,000 cells per well in a volume of 20 μL. The cells were dosed with the compounds of interest using an Echo Liquid Handler (Beckman Coulter, Brea, CA) at 50 μM top dose with 3-fold dilutions down to 0.002679 μM for a 10-point dose response. The plate was incubated for 3 hours at 37° C. and subsequently treated with recombinant mouse IFNγ (R&D Systems, Catalog^#485-MI, Minneapolis, MN; 100 nM final concentration) for 10 minutes at 37° C. to induce STAT1 phosphorylation followed by 3.3 μM staurosporine treatment for 1 hour at 37° C. to terminate phosphorylation. Media was then aspirated and 20 μL of 1× lysis buffer/blocking reagent (Cisbio Phospho-STAT1 kit, part^# 63ADK026PEH, Bedford, MA) was added. The plate was placed on a plate shaker for 30 minutes at room temperature, sealed, and stored at −80° C. until needed. To thaw, the plate was placed on shaker at room temperature until completely thawed while the antibody master mix was made (1:40 Phospho-STAT1 Eu Cryptate antibody, 1:40 Phospho-STAT d2 antibody, with the detection buffer; Cisbio Phospho-STAT1 kit, part^#63ADK026PEH, Bedford, MA). The antibody master mix was then dispensed at 4 μL per well into a 384 ProxiPlate Plus (PerkinElmer, part^#6008289, Waltham, MA) and 16 μL of lysate was added from the Corning plate to the Proxiplate using a VIAFLO 384 (INTEGRA). The plate was incubated for 3 hours at room temperature and read on an EnVision® (Perkin Elmer) plate reader with laser excitation at 335 nm and emission at 665 nm. Dotmatics Studies (Bishop's Stortford, UK) was utilized to generate all dose-response curves and calculate EC50s and are shown in Table 2.

[2] = target: His tagged full-length PTPN1 protein (Homo sapiens (Human), UniProt P18031); experiment: PTPN1 Mobility Shift Assay (MSA); type: biochemical; conditions: enzyme 0.5 nM, substrate 2 μM
Method: Example III-2: Mobility Shift Assay (MSA) Used to Determine Potency of PTPN1 Inhibitors
Compound activity was determined using in house His tagged full-length PTPN1 protein (SEQ ID NO: 3) in an in vitro enzymatic reaction. The enzymatic assay used to determine activity is a mobility shift assay using a LabChip EZ Reader by Caliper Life Sciences. The enzymatic reaction was carried out in assay buffer (50 mM HEPES pH 7.5, 1 mM EGTA, 10 mM EDTA, 0.01% Tween® 20, and 2 mM DTT). The compounds were dispensed on a white 384 well ProxiPlate™ (PerkinElmer Cat ^#6008289) plate using a Labcyte Echo® liquid handler at varying concentrations (12 point, 1:3 dilution). The enzyme (at 0.5 nM) was incubated with compound for 10 minutes at room temperature. Thereafter, the substrate (phosphorylated insulin receptor probe sequence: ((OG488)-(NH—CH2—CH2—O—CH2—CH2—O—CH2—CO)-T-R-D-I—(PY)-E-T-D-Y—Y—R—K—K—NH2) (SEQ ID NO: 2) was added at 2 μM to the plates and incubated for another 10 minutes at room temperature. Finally, a quench solution (water and 4-bromo-3-(2-oxo-2-propoxyethoxy)-5-(3-{[1-(phenylmethanesulfonyl)piperidin-4-yl]amino}phenyl)thiophene-2-carboxylic acid) was added to the plates, which were then run on the EZ Reader (excitation 488 nm, emission 530 nm) to measure % conversion (the amount of phosphorylated substrate which was de-phosphorylated by PTPN1). […] The % inhibition was then used to calculate the IC50 values.

[3] = target: His tagged PTPN2 (TC45) protein (Homo sapiens (Human), UniProt P17706); experiment: PTPN2 Mobility Shift Assay (MSA); type: biochemical; conditions: for Dihydrobenzofuran or Indoline x-fold>potency biochemical: x-fold versus corresponding chromane comparator, PTPN2 MSA
Method: Example III-1: Mobility Shift Assay (MSA) Used to Determine Potency of PTPN2 Inhibitors
Compound activity was determined using in house His tagged PTPN2 (TC45) protein (SEQ ID NO: 1) in an in vitro enzymatic reaction. The enzymatic assay used to determine activity was a mobility shift assay using a LabChip EZ Reader by Caliper Life Sciences. The enzymatic reaction was carried out in assay buffer (50 mM HEPES pH 7.5, 1 mM EGTA, 10 mM EDTA, 0.01% Tween® 20, and 2 mM DTT). The compounds were dispensed on a white 384 well ProxiPlate™ (PerkinElmer Catalog #6008289) plate using the Labcyte Echo at varying concentrations (12 point, 1:3 dilution). The enzyme (at 0.5 nM) was incubated with compound for 10 minutes at room temperature. Thereafter, the substrate (phosphorylated insulin receptor probe sequence: ((OG488)-(NH—CH2—CH2—O—CH2—CH2—O—CH2—CO)-T-R-D-I—(PY)-E-T-D-Y—Y—R—K—K—NH2) (SEQ ID NO: 2) was added at 2 μM to the plates and incubated for another 10 minutes at room temperature. Finally, a quench solution (water and 4-bromo-3-(2-oxo-2-propoxyethoxy)-5-(3-{[1-(phenylmethanesulfonyl)piperidin-4-yl]amino}phenyl)thiophene-2-carboxylic acid) was added to the plates, which were then run on the EZ Reader (excitation 488 nm, emission 530 nm) to measure % conversion (the amount of phosphorylated substrate which was de-phosphorylated by PTPN2). […] The % inhibition was then used to calculate the IC50 values.

[4] = 3 hours compound, 100 nM mouse IFNγ 10 minutes, read-out: B16F10 IFNγ Induced pSTAT1 EC50
[5] = Mus musculus, Table 3, dihydrobenzofuran or indoline compound (X = O or NH), read-out: pSTAT1 EC50
[6] = Table 3, dihydrobenzofuran or indoline compound (X = O or NH)

His tagged full-length PTPN1 protein, sequence (P18031 whole entry): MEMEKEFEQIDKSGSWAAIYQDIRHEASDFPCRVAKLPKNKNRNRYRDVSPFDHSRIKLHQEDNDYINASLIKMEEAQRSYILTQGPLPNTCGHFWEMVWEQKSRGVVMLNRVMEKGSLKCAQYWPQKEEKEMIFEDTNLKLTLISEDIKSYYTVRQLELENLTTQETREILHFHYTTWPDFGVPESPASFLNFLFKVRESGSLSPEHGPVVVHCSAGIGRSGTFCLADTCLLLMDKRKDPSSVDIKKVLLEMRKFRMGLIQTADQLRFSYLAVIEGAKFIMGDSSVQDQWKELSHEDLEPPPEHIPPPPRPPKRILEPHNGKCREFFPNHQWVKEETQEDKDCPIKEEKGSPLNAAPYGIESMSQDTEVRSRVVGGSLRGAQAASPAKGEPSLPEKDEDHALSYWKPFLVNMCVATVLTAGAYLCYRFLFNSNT
His tagged PTPN2 (TC45) protein, sequence (P17706 other isoform, or with tags, fused parts or gaps): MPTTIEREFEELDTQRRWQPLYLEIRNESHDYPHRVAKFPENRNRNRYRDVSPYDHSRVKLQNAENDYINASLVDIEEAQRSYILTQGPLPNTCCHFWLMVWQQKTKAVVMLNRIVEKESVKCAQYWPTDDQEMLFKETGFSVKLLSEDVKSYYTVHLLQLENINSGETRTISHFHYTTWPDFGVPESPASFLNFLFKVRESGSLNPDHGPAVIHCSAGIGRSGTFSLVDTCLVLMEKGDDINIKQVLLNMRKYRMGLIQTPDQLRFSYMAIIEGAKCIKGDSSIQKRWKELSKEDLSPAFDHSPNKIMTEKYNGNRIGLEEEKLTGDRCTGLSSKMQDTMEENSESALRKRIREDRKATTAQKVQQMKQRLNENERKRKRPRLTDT

| Compound | EC50 [1, 4] [nM] | EC50 [1, 5] [nM] | IC50 [2] [nM] | Dihydrobenzofuran or Indoline x-fold>potency cellular [1] | IC50 [3, 6] [nM] | IC50 ([3]; enzyme 0.5 nM, substrate 2 μM) [nM] | Dihydrobenzofuran or Indoline x-fold>potency biochemical [3] |
| --- | --- | --- | --- | --- | --- | --- | --- |
| CC(C)(C)OC(=O)N1CCC(CNC[C@H]2Cc3c(cc(O)c(N4CC(=O)NS4(=O)=O)c3F)O2)CC1 [Compound 124, tert-butyl 4-[({[(2R)-4-fluoro-6-hydroxy-5-(1,1,4-trioxo-1λ^6,2,5-thiadiazolidin-2-yl)-2,3-dihydro-1-benzofuran-2-yl]methyl}amino)methyl]piperidine-1-carboxylate] |  |  | 10 to 100 |  | 13.2 | 10 to 100 | 1.1 |
| CCC(C)CNC[C@H]1Cc2c(cc(O)c(N3CC(=O)NS3(=O)=O)c2F)N1 (stereo partly drawn) [Compound 142, 5-[(2R)-4-fluoro-6-hydroxy-2-{[(2-methylbutyl)amino]methyl}-2,3-dihydro-1H-indol-5-yl]-1λ^6,2,5-thiadiazolidine-1,1,3-trione] | 1140 |  | 10 to 100 |  |  | 10 to 100 |  |
| O=C1CN(c2c(O)cc3c(c2F)C[C@H](CNCCCOCC(F)F)O3)S(=O)(=O)N1 [Compound 123, 5-[(2R)-2-({[3-(2,2-difluoroethoxy)propyl]amino}methyl)-4-fluoro-6-hydroxy-2,3-dihydro-1-benzofuran-5-yl]-1λ^6,2,5-thiadiazolidine-1,1,3-trione] |  |  | 10 to 100 |  | 11.2 | 10 to 100 | 2.1 |
| O=C1CN(c2c(O)cc3c(c2F)C[C@H](CNCC(O)C(F)F)N3)S(=O)(=O)N1 (stereo partly drawn) [Compound 157, 5-[(2R)-2-{[(3,3-difluoro-2-hydroxypropyl)amino]methyl}-4-fluoro-6-hydroxy-2,3-dihydro-1H-indol-5-yl]-1λ^6,2,5-thiadiazolidine-1,1,3-trione] |  |  | > 100 |  |  | > 100 |  |
| CC(C)CNC[C@H]1Cc2c(cc(O)c(N3CC(=O)NS3(=O)=O)c2F)N1C [Compound 156, 5-[(2R)-4-fluoro-6-hydroxy-1-methyl-2-{[(2-methylpropyl)amino]methyl}-2,3-dihydro-1H-indol-5-yl]-1λ^6,2,5-thiadiazolidine-1,1,3-trione] |  |  | > 100 |  |  | > 100 |  |
| CC(C)CNC[C@@H]1Cc2c(cc(O)c(N3CC(=O)NS3(=O)=O)c2F)O1 [Compound 101, 5-[(2S)-4-fluoro-6-hydroxy-2-{[(2-methylpropyl)amino]methyl}-2,3-dihydro-1-benzofuran-5-yl]-1λ^6,2,5-thiadiazolidine-1,1,3-trione] |  |  | > 100 |  |  | > 100 |  |

The next lines start with results.

| EC50 [1, 4] [nM] | EC50 [1, 5] [nM] | IC50 [2] [nM] | Compound | Dihydrobenzofuran or Indoline x-fold>potency cellular [1] | IC50 [3, 6] [nM] | IC50 ([3]; enzyme 0.5 nM, substrate 2 μM) [nM] | Dihydrobenzofuran or Indoline x-fold>potency biochemical [3] |
| --- | --- | --- | --- | --- | --- | --- | --- |
| 10800 | 10800 | 10 to 100 | O=C1CN(c2c(O)cc3c(c2F)C[C@H](CNCCCc2ccccc2)O3)S(=O)(=O)N1 [Compound 127, 5-[(2R)-4-fluoro-6-hydroxy-2-{[(3-phenylpropyl)amino]methyl}-2,3-dihydro-1-benzofuran-5-yl]-1λ^6,2,5-thiadiazolidine-1,1,3-trione] | >4.6 | 4.05 | < 10 | 4.7 |
| 1110 |  | 10 to 100 | CCCCNC[C@H]1Cc2c(cc(O)c(N3CC(=O)NS3(=O)=O)c2F)O1 [Compound 111, 5-{(2R)-2-[(butylamino)methyl]-4-fluoro-6-hydroxy-2,3-dihydro-1-benzofuran-5-yl}-1λ^6,2,5-thiadiazolidine-1,1,3-trione] |  |  | 10 to 100 |  |
| 756 |  | 10 to 100 | CCCNC[C@H]1Cc2c(cc(O)c(N3CC(=O)NS3(=O)=O)c2F)N1 [Compound 135, 5-{(2R)-4-fluoro-6-hydroxy-2-[(propylamino)methyl]-2,3-dihydro-1H-indol-5-yl}-1λ^6,2,5-thiadiazolidine-1,1,3-trione] |  |  | 10 to 100 |  |
| 2950 |  | 10 to 100 | CC(C)(O)CCNC[C@H]1Cc2c(cc(O)c(N3CC(=O)NS3(=O)=O)c2F)O1 [Compound 105, 5-[(2R)-4-fluoro-6-hydroxy-2-{[(3-hydroxy-3-methylbutyl)amino]methyl}-2,3-dihydro-1-benzofuran-5-yl]-1λ^6,2,5-thiadiazolidine-1,1,3-trione] |  |  | 10 to 100 |  |
| > 50000 | > 50000 | 10 to 100 | CC1=C(CCNC[C@H]2Cc3c(cc(O)c(N4CC(=O)NS4(=O)=O)c3F)O2)C(C)(C)CCC1 [Compound 128, 5-[(2R)-4-fluoro-6-hydroxy-2-({[2-(2,6,6-trimethylcyclohex-1-en-1-yl)ethyl]amino}methyl)-2,3-dihydro-1-benzofuran-5-yl]-1λ^6,2,5-thiadiazolidine-1,1,3-trione] | ~1.0 | 1.81 | < 10 | 12.5 |
| 848 |  | 10 to 100 | O=C1CN(c2c(O)cc3c(c2F)C[C@H](CNCC2CCC2)O3)S(=O)(=O)N1 [Compound 119, 5-[(2R)-2-{[(cyclobutylmethyl)amino]methyl}-4-fluoro-6-hydroxy-2,3-dihydro-1-benzofuran-5-yl]-1λ^6,2,5-thiadiazolidine-1,1,3-trione] |  |  | 10 to 100 |  |
| 1560 | 1560 | 10 to 100 | CC(C)CCNC[C@H]1Cc2c(cc(O)c(N3CC(=O)NS3(=O)=O)c2F)N1 [Compound 139, 5-[(2R)-4-fluoro-6-hydroxy-2-{[(3-methylbutyl)amino]methyl}-2,3-dihydro-1H-indol-5-yl]-1λ^6,2,5-thiadiazolidine-1,1,3-trione] | 4.5 | 19.8 | 10 to 100 | 0.8 |
| 2180 |  | 10 to 100 | CCCCNC[C@H]1Cc2c(cc(O)c(N3CC(=O)NS3(=O)=O)c2F)N1 [Compound 150, 5-{(2R)-2-[(butylamino)methyl]-4-fluoro-6-hydroxy-2,3-dihydro-1H-indol-5-yl}-1λ^6,2,5-thiadiazolidine-1,1,3-trione] |  |  | 10 to 100 |  |

— US20250019374A1, “PROTEIN TYROSINE PHOSPHATASE INHIBITORS AND METHODS OF USE THEREOF” (Calico Life Sciences LLC, priority 2021, published 2025)
